Assay [1] addresses T1, WT STING (Homo sapiens, UniProt Q86WV6, H232R). As to the kind of experiment: Digitonin assay using 293T wtSTING-FL reporter cells. It is filed as cell-based. As to conditions: 293T wtSTING-FL cells; 30 minutes in Digitonin buffer, then 5 hours; ISRE firefly luciferase reporter. An excerpt:
(§1) Two complementary oligonucleotides of the sequence […] […] […] […] […] The oligonucleotides were mixed in equal molar amounts, hybridized, and cleaved by restriction endonucleases HindIII (cat. #. R0104S, NEB, Ipswich, USA) and BglII (cat. # R0144S, NEB, Ipswich, USA). Ultimately, they were ligated into plasmid pGL4.27 (cat. # E6651, Promega, Madison, USA) linearized with the same enzymes. As result the sequence with four ISRE sites was placed upstream of the minimum promoter of firefly luciferase reporter gene.
(§2) After 5 minutes incubation at room temperature (RT), 250 µL of the mixture was added dropwise to the cells in one well. Cells were incubated 36 hours at 37° C. with 5% CO2, and then detached with 0.05% Trypsin and 0.22 g/L EDTA (both cat. # L0941, Biowest, Riverside, USA).
(§3) Transfected cells were seeded onto poly-D-lysine coated six well plates at density 50,000 cells per 1 cm^2 in DMEM medium with high glucose containing 10% heat inactivated FBS, 30 µg/mL blasticidin (cat. # ant-bl-05, InvivoGen, San Diego, USA), 0.06 mg/ml Penicillin G and 0.1 mg/ml Streptomycin Sulfate (both cat. #. L0018, Biowest, Riverside, USA). The medium was replenished every 3 - 4 days until visible colonies of cells resistant to blasticidin were formed.
(§4) Blasticidin resistant cells stably expressing WT STING were further transfected with […] plasmid following the same procedure as described above. […] Homogeneous culture of stably double transfected cells was prepared by limiting dilution of cells in 96 well plates and wells with cells were selected that originated from a single cell.
The medium was removed next day and three fold serial dilutions of compounds in Digitonin buffer containing 50 mmol.l^-1 HEPES (cat. # H3375, Sigma Aldrich, Czech Republic) pH 7.0, 100 mmol.1^-1 KCl, 3 mmol.l^-1 MgCl2, 0.1 mmol.l^-1 DTT (cat. # D0632, Sigma Aldrich, Czech Republic), 85 mmol.1^-1 Sucrose (cat. # S7903, Sigma Aldrich, Czech Republic), 0.2% BSA (cat. # A2153, Sigma Aldrich, Czech Republic), 1 mmol.l^-1 ATP (cat. # A1852, Sigma Aldrich, Czech Republic), 0.1 mmol.1^-1 GTP (cat. # G8877, Sigma Aldrich, Czech Republic), and 10 µg/mL Digitonin A (cat. # D141, Sigma Aldrich, Czech Republic) were added to the cells. The buffer was removed after 30 minutes incubation at 37° C. with 5% CO2, the cells were washed once with 100 µl of cultivation medium, and 100 µl of medium was added to each well. The plates with cells were incubated for 5 hours at 37° C. with 5% CO2, 50µl of the medium was removed and 30 µl of ONE-Glo^Tm Luciferase Assay System reagent (cat. # E6120, Promega, Madison, USA) was added to each well. Luminescence was read on Synergy H1 (Biotek, Winooski, USA).
For orientation: Reporter assays use an easily measured gene product as a stand-in for the process of interest.
Target sequence in this assay (Q86WV6 whole entry H232R): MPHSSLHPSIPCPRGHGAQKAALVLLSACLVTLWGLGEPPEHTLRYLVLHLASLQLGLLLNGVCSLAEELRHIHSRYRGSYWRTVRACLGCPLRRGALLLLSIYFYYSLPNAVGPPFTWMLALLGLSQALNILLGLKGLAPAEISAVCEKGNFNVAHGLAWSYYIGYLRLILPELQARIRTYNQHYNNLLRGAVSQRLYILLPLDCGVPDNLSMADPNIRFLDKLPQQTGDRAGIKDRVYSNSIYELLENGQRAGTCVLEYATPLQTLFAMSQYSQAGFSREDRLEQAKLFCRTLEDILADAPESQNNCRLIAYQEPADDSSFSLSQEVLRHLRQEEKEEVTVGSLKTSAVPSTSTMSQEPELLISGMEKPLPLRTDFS

In assay [2] the target is T2, AQ STING (G230A-R293Q) (Homo sapiens, UniProt Q86WV6, G230A/H232R/R293Q).
T2 construct: 8xHis (N, cleaved yes); SUMO (N, cleaved yes); made in house; host or cells: E. coli Rosetta-gami B (DE3)
As to the kind of experiment: Differential Scanning Fluorimetry with AQ STING. Format: binding. The following applies: thermal shift vs apoprotein, 150 µM CDN, truncated human AQ STING 0.1 mg/ml; for ΔTm at 150 µM: read-out: DSF ΔTm AQ STING. The source says:
(§5) Purified PCR products were cleaved with restriction enzymes BamHI (cat. # R0136S, NEB, Ipswich, USA) and NotI (cat. # R0189S, NEB, Ipswich, USA) and cloned into the pSUMO vector linearized with the identical enzymes.
(§6) Bacterial pellets were re-suspended in ice-cold lysis buffer containing 50 mmol.1^-1 TrisCl (cat. # T1503, Sigma Aldrich, Czech Republic) pH 8.0, 300 mmol.1^-1 NaCl, 3 mmol.1^-1 β-mercaptoethanol (cat. # M6250, Sigma Aldrich, Czech Republic), 10% glycerol (cat. # G5516, Sigma Aldrich, Czech Republic) and 20 mmol.1^-1 imidazole (cat. # I5513, Sigma Aldrich, Czech Republic) using Dounce homogenizer. DNase I (cat. # D5025, Sigma Aldrich, Czech Republic) and RNase A (cat. # R6513, Sigma Aldrich, Czech Republic) were added (final concentration 50 µg/ml) together with MgCl2 (final concentration 5 mmol.l^-1) to the homogenate and bacteria were lysed using French Press G-M™ High-Pressure Cell Press Homogenizer (1500 psi, 3 cycles). […] The resin was poured into a chromatography column, washed with 50 ml buffer A (50 mmol.1^-1 TrisCl (pH 8.0), 800 mmol.1^-1 NaCl, 3 mmol.1^-1 β-mercaptol; 10% glycerol; 20 mmol.1^-1 imidazole) and 8-His-SUMO tagged STING proteins were eluted with 15 ml buffer A containing 300 mmol.1^-1 imidazole. […] Proteins were concentrated with Amicon® Ultra-15 10 K device (cat. # UFC901008, Merck Millipore, Billerica, USA) and flash frozen in liquid N2.
(§7) 20 µL solutions of the reaction mixtures were pipetted in triplicates into 96 well optical reaction plates and thermal denaturation of samples were performed on real time PCR cycler (LightCycler® 480 Instrument II - Roche, Basel, Switzerland). The first derivative of the thermal denaturation curves was performed to calculate denaturing temperatures of STING - CDN complexes and STING apoproteins. The thermal shift for each CDN was calculated by subtracting the average denaturing temperature of STING apoprotein from the average denaturing temperature of STING CDN complex.

Assay [3] addresses T1, WT STING. Briefly: Differential Scanning Fluorimetry with WT STING. It is filed as binding. Details: 8xHis (N, cleaved yes); SUMO (N, cleaved yes); made in house; host or cells: E. coli Rosetta-gami B (DE3). As to conditions: thermal shift vs apoprotein, 150 µM CDN, truncated human WT STING 0.1 mg/ml; for ΔTm at 150 µM: read-out: DSF ΔTm WT STING.
Source text: as §5, §6, §7
Background: In DSF a fluorescence change marks the thermal transition of the protein.
Target sequence in this assay (Q86WV6 140-343 H232R): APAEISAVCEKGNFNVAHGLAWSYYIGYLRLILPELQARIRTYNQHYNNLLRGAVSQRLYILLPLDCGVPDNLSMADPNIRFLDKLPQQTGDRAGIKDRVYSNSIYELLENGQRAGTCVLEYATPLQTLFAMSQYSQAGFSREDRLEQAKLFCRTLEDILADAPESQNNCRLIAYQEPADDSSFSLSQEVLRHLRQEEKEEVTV

The test system of assay [4] is peripheral blood mononuclear cell (PBMC). Briefly: Peripheral blood mononuclear cell assay. It is filed as cell-based. The following applies: PBMC, 1h with compound, washed, 15 hour incubation. On the procedure: Selected compounds were tested in an in vitro peripheral blood mononuclear cell (PBMC) assay. Freshly isolated PBMCs were seeded into U-shaped shaped 96-well plates at desity 500,000 cells per well in 50 µl of RPMI 1640 medium supplemented with 10% heat inactivated FBS. Serially dilluted tested compounds were added to wells in 50 µl of cultivation medium and cell were incubated with compounds for 1h at 37° C. with 5% CO2. Plates with cells were then spun 500 g for 5 minutes and medium was removed. Cells were washed twice with the cell culture medium by the use of centrifugation and gently resuspended in 100 µl medium without compounds. After 15 hour incubation at 37° C. with 5% CO2, the cell culture medium was collected and the levels of interferon-alpha (INF-α), interferon-gamma (INF-γ) and tumor necrosis factor-alpha (TNF-α) were determined with ProcartaPlex Assays (ThermoFisher, Waltham, USA) and MAGPIX System (Merck KGaA, Darmstadt, Germany).

Assay [5] addresses T1, WT STING. As to the kind of experiment: 293T WT STING standard reporter assay. The following applies: 293T wtSTING-FL cells; 7 hours with compound, no digitonin; ISRE firefly luciferase reporter. It is filed as cell-based.
Source text: as §1, §2, §3, §4
Target sequence in this assay (Q86WV6 whole entry H232R): as the sequence (Q86WV6 whole entry H232R) above
The medium was removed next day and three-fold serial dilutions of compounds in 100 µl medium were added to the cells. The plates with cells were incubated for 7 hours at 37° C. with 5% CO2. After 50 µl of the medium was removed, 30 µl of ONE-Glo^Tm Luciferase Assay System reagent (cat. # E6120, Promega, Madison, USA) was added to each well and luminescence was read on Synergy H1 (Biotek, Winooski, USA).

Read-outs that look alike come from different tables or passages of the source.

T2 sequence (Q86WV6 140-343 G230A/H232R/R293Q): as the sequence (Q86WV6 140-343 H232R) above, with G91A, R154Q counted along it

Broadly, the EC50 is the concentration needed to bring the measured effect to its halfway point. The ΔTm is the shift of the melting midpoint relative to a reference. For the compound `Nc1ncnc2c1ncn2[C@@H]1O[C@@H]2/C=C/P(=O)(O)O[C@H]3[C@@H](F)[C@H](n4cnc5c(N)ncnc54)O[C@@H]3COP(=O)(O)O[C@H]2[C@H]1F` [Compound 53], the 50% effective concentration (EC50) came out at 0.03 µM in assay [1]; 120 µM in assay [4] (IFN-α level in medium, read-out: PBMC EC50 IFN-α); 36 µM in assay [4] (IFN-γ level in medium, read-out: PBMC EC50 IFN-γ); 54 µM in assay [4] (TNF-α level in medium, read-out: PBMC EC50 TNF-α); 10.1 µM in assay [5]. In addition, the shift in melting temperature (ΔTm) at 150 µM in assay [2] is 11.6 °C; in assay [3] it was 6.9 °C.

Regarding `Nc1nc2c(ncn2[C@@H]2O[C@@H]3COP(=O)(O)O[C@@H]4[C@H](O)[C@@H](COP(=O)(O)O[C@@H]2[C@@H]3O)O[C@H]4n2cnc3c(N)ncnc32)c(=O)[nH]1` [2′2′-cGAMP, reference compound], the half-maximal effective concentration (EC50) in assay [1] was 0.03 µM; in assay [5] it was 10.2 µM. For the same compound, the “DSF ΔTm AQ STING” value in assay [2] came to 19.4 °C. In assay [3], the “DSF ΔTm WT STING” value is 11.5 °C.

For `CSc1ncnc2c1ncn2[C@@H]1O[C@@H]2COP(=O)(O)O[C@H]3[C@@H](O)[C@H](n4cnc5c(=O)[nH]c(N)nc54)O[C@@H]3/C=C\P(=O)(O)O[C@H]2[C@H]1O` (stereo in doubt) [Compound 70, (1S,6R,8R,9R,10S,15R,17R,18R)-17-(2-amino-6-oxo-6,9-dihydro-1H-purin-9-yl)-3,9,12,18-tetrahydroxy-8-[6-(methylsulfanyl)-9H-purin-9-yl]-2,4,7,1 1,16-pentaoxa-3λ^5,12λ^5-diphosphatricyclo[13.3.0.0^6,^10]octadec-13-ene-3,12-dione], the EC50 in assay [1] was 16.1 µM. Also, the ΔTm at 150 µM turned out to be 1.1 °C in assay [2] and 0.5 °C in assay [3].

As for `Nc1nc2c(ncn2[C@@H]2O[C@@H]3/C=C/P(=O)(O)O[C@H]4C[C@H](n5cnc6c(N)ncnc65)O[C@@H]4COP(=O)(O)O[C@H]3[C@H]2O)c(=O)[nH]1` [Compound 55, (1S,6R,8R,10S,13E,15R,17R,18R)-17-(2-amino-6-oxo-6,9-dihydro-1H-purin-9-yl)-8-(6-amino-9H-purin-9-yl)-3,12,18-trihydroxy-2,4,7,11,16-pentaoxa-3λ^5,12λ^5-diphosphatricyclo[13.3.0.0^6,^10]octadec-13-ene-3,12-dione], in assay [1], the EC50 worked out at 0.78 µM. Also, the thermal shift (ΔTm) at 150 µM in assay [2] is 8.6 °C; in assay [3] it was 1.9 °C.

The record behind these values is patent publication US20230303613A1, “3′3′ CYCLIC DINUCLEOTIDES WITH AN ALKENYLENE” (Institute of Organic Chemistry and Biochemistry AS CR, v.v.i, priority 2020, published 2023).
